The values below are quoted from earlier work in patent publication US20060252738A1, “Method for preparing and using water-based steroid pheromone compositions” (Phero Tech Inc., priority 2005, published 2006).

For one data set, the system named is sows. The following applies: pigs; Reed et al. (1974).
Data set [1] deals with sows that have reached oestrus. Conditions: for function in place of boar saliva: pressurized aerosol sprays in organic solvents, sows that have reached oestrus, Melrose et al. 1971.

For the compound `C[C@]12CC[C@H](O)C[C@@H]1CC[C@@H]1[C@@H]2CC[C@]2(C)C=CC[C@@H]12` [3β-hydroxy-5α-androst-16-ene], the “bioactivity as diagnostic tool relative to androstenone” value in the data set with sows is recorded as “less effective”.

On to `C[C@@]12CCC[C@H]1[C@@H]1CC[C@H]3CC(=O)CC[C@]3(C)[C@H]1CC2` [5α-androstan-3-one], for which the “bioactivity as diagnostic tool relative to androstenone” value in the data set on sows is reported as “less effective”.

Consider `C[C@]12CCC(=O)C[C@H]1CC[C@@H]1[C@@H]2CC[C@]2(C)C=CC[C@@H]12` [5β-androst-16-en-3-one], for which the “bioactivity as diagnostic tool relative to androstenone” value in the data set with sows was “comparable”.

With `C[C@]12CC[C@@H](O)C[C@@H]1CC[C@@H]1[C@@H]2CC[C@]2(C)C=CC[C@@H]12` [androstenol, 3α-hydroxy-5a-androst-16-ene], the “function in place of boar saliva” value in data set [1] is “inducing an immobile mating stance”.

Consider `C[C@]12CCC(=O)C[C@@H]1CC[C@@H]1[C@@H]2CC[C@]2(C)C=CC[C@@H]12` [androstenone, 5α-androst-16-en-3-one], for which, in data set [1] (established by Melrose et al. (1972)), the effective dose was 2 to 20 µg. The “function in place of boar saliva” value in data set [1] was “inducing an immobile mating stance”.

For the compound `C[C@@]12C=CC[C@H]1[C@@H]1CCC3=CC(=O)CC[C@]3(C)[C@H]1CC2` [andrsost-4,16-dien-3-one], the “bioactivity as diagnostic tool relative to androstenone” value with sows is listed as “comparable”.
